In assay [1] the target is T1, STAT6 (Homo sapiens, UniProt P42226).
T1 construct: stably transfected HaCaT keratinocyte cell line, which expresses NanoLuc luciferase reporter gene under the transcriptional control of the STAT6 responsive promoter; endogenous in cells; host or cells: HaCaT keratinocyte reporter cell line (stably transfected with a NanoLuc reporter)
T1 sequence (P42226 1-847): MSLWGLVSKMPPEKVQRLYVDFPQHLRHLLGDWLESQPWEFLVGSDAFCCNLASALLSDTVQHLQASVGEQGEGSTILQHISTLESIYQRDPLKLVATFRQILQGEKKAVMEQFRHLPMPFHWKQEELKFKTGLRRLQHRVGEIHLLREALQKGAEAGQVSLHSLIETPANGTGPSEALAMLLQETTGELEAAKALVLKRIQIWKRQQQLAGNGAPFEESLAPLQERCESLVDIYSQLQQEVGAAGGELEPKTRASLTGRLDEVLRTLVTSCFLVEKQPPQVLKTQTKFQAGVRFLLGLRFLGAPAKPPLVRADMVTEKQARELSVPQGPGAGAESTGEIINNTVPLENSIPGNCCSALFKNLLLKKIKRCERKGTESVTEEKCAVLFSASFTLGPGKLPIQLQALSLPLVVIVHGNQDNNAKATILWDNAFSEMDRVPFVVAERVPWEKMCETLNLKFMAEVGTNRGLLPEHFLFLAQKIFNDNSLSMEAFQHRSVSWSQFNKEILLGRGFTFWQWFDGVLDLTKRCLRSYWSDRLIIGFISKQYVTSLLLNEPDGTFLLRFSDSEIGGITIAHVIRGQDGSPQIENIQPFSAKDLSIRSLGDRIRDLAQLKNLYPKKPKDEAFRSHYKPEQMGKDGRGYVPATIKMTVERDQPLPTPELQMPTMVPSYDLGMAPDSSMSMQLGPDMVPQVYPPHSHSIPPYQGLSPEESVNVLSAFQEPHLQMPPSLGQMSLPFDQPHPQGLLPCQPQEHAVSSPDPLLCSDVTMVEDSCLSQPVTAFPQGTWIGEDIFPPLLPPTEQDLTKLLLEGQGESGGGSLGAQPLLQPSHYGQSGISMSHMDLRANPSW
Briefly: STAT6 Reporter Luciferase Assay (IL-13 stimulated HaCaT keratinocyte NanoLuc reporter cells). The assay is classed as cell-based. Particulars: IL-13 stimulated HaCaT STAT6 NanoLuc reporter cells; read-out: Reporter EC50. The procedure, abridged: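 HaCaT cells stably carrying a NanoLuc reporter driven by the STAT6-responsive IL-13Ra2 promoter were preincubated with compounds for 2 h at 37 °C in 2% FBS medium. Cells were then stimulated with 0.12 nM IL-13 for 4 h, and luminescence was read after Nano-Glo substrate. Compounds ran as 11-point 4-fold dilutions in duplicate.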

Assay [2] deals with CCL17 secretion in peripheral human whole blood. Briefly: Human Whole Blood (HWB) CCL17 TR-FRET Assay (IL-13 stimulated CCL17 secretion). Particulars: Homo sapiens, 48 h, human whole blood, IL-13 stimulated. The assay is classed as cell-based. The method in brief:
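Heparinized peripheral human whole blood was preincubated with compound (11-point, 3-fold series, duplicate) for 2 h at 37 °C, then stimulated with IL-13 at 10 ng/mL final for 48 h at 37 °C. Secreted CCL17 in the serum was quantified by TR-FRET sandwich immunoassay (665/615 nm ratio, 16 h RT); IC50 derived.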
Background: TR-FRET usually uses a lanthanide donor and a delayed reading to cut background.

Structures are written as SMILES. A value given as a limit tells only on which side of the number the result lay.

Broadly, the EC50 is the concentration that produces a half-maximal response. A word on the IC50: it is the concentration that inhibits the measured activity by half. High values mean weaker potency in that assay, low ones greater potency in that assay. As to `CC(C)n1nc(C(=O)NCc2ccc(NC(=O)N(C)C)cc2)c2c1CCN(c1ccc(C(=O)N3Cc4cccc(C(=O)N(C)C)c4C3)cn1)C2` [Example 431, 5-(5-(4-(dimethylcarbamoyl)isoindoline-2-carbonyl)pyridin-2-yl)-N-(4-(3,3-dimethylureido)benzyl)-1-isopropyl-4,5,6,7-tetrahydro-1H-pyrazolo[4,3-c]pyridine-3-carboxamide], in assay [1], the half-maximal effective concentration (EC50) stood at 12 nM. The compound also showed an IC50 in assay [2] of 89 nM.
Regarding `CC(C)n1ncc2c1CN(C(=O)c1ccc(N3CCc4c(c(C(=O)NCc5ccc(NC(=O)N(C)C)cc5)nn4C(C)C)C3)nc1)CC2` [Example 437, N-(4-(3,3-dimethylureido)benzyl)-1-isopropyl-5-(5-(1-isopropyl-4,5,6,7-tetrahydro-1H-pyrazolo[3,4-c]pyridine-6-carbonyl)pyridin-2-yl)-4,5,6,7-tetrahydro-1H-pyrazolo[4,3-c]pyridine-3-carboxamide], in assay [1], the EC50 worked out at 45 nM. In assay [2], this compound gave a half-maximal inhibitory concentration (IC50) of 1050 nM.
In the same order, the values of `COc1ccc2c(n1)CN(C(=O)c1ccc(N3CCc4c(c(C(=O)NCc5ccc(NC(=O)N(C)C)cc5)nn4C(C)C)C3)nc1)CC2` [Example 443, N-(4-(3,3-dimethylureido)benzyl)-1-isopropyl-5-(5-(2-methoxy-5,6,7,8-tetrahydro-1,7-naphthyridine-7-carbonyl)pyridin-2-yl)-4,5,6,7-tetrahydro-1H-pyrazolo[4,3-c]pyridine-3-carboxamide] are 11 nM and 878 nM.
The corresponding values for `CC(C)n1nc(C(=O)NCc2ccc(N)cc2)c2c1[C@@H](C)CN(c1ccc(C(=O)N(C)C)cn1)C2` [Example 450, (S)-N-(4-aminobenzyl)-5-(5-(dimethylcarbamoyl)pyridin-2-yl)-1-isopropyl-7-methyl-4,5,6,7-tetrahydro-1H-pyrazolo[4,3-c]pyridine-3-carboxamide] are 21 nM and 93 nM.
In the same order, the values of `CC(C)n1nc(C(=O)NCc2ccc(-c3ncc[nH]3)cc2)c2c1C[C@H](C)N(c1ncc(C(=O)N(C)C)cn1)C2` [Example 451, (S)-N-(4-(1H-imidazol-2-yl)benzyl)-5-(5-(dimethylcarbamoyl)pyrimidin-2-yl)-1-isopropyl-6-methyl-4,5,6,7-tetrahydro-1H-pyrazolo[4,3-c]pyridine-3-carboxamide] are 3 nM and 47 nM.
As to `CC(C)n1nc(C(=O)NCc2ccc(NC(=O)N(C)C)cc2)c2c1C[C@H](C)N(c1ncc(C(=O)N(C)C)cn1)C2` [Example 452, (S)-5-(5-(dimethylcarbamoyl)pyrimidin-2-yl)-N-(4-(3,3-dimethylureido)benzyl)-1-isopropyl-6-methyl-4,5,6,7-tetrahydro-1H-pyrazolo[4,3-c]pyridine-3-carboxamide], the concentration for a half-maximal effect (EC50) in assay [1] came to 3 nM. The same compound showed an IC50 in assay [2] of 16 nM.
The corresponding values for `CNC(=O)Nc1ccc(CNC(=O)c2nn(C(C)C)c3c2CN(c2ccc(C(N)=O)cn2)CC3)cc1` [Example 453, 5-(5-carbamoylpyridin-2-yl)-1-isopropyl-N-(4-(3-methylureido)benzyl)-4,5,6,7-tetrahydro-1H-pyrazolo[4,3-c]pyridine-3-carboxamide] are 2150 nM and 12100 nM.
In the same order, the values of `CNC(=O)Nc1ccc(CNC(=O)c2nn(C(C)C)c3c2CN(c2ccc(C(=O)NC)cn2)CC3)cc1` [Example 454, 1-isopropyl-5-(5-(methylcarbamoyl)pyridin-2-yl)-N-(4-(3-methylureido)benzyl)-4,5,6,7-tetrahydro-1H-pyrazolo[4,3-c]pyridine-3-carboxamide] are 128 nM and 720 nM.
As for `CNC(=O)c1ccc(N2CCc3c(c(C(=O)NCc4ccc(NC(N)=O)cc4)nn3C(C)C)C2)nc1` [Example 456, 1-isopropyl-5-(5-(methylcarbamoyl)pyridin-2-yl)-N-(4-ureidobenzyl)-4,5,6,7-tetrahydro-1H-pyrazolo[4,3-c]pyridine-3-carboxamide], the EC50 in assay [1] worked out at 742 nM. Further, in assay [2], it took 579 nM to reach half-maximal inhibition (IC50).
The corresponding values for `CC(C)n1nc(C(=O)NCc2ccc(NC(N)=O)cc2)c2c1CCN(c1ccc(C(N)=O)cn1)C2` [Example 457, 5-(5-carbamoylpyridin-2-yl)-1-isopropyl-N-(4-ureidobenzyl)-4,5,6,7-tetrahydro-1H-pyrazolo[4,3-c]pyridine-3-carboxamide] are 5960 nM and 5010 nM.
In the same order, the values of `CC(C)n1nc(C(=O)Nc2cccc(C(N)=O)c2F)c2c1[C@@H](C)CN(c1ccc(C(=O)N(C)C)cn1)C2` [Example 458, (S)-N-(3-carbamoyl-2-fluorophenyl)-5-(5-(dimethylcarbamoyl)pyridin-2-yl)-1-isopropyl-7-methyl-4,5,6,7-tetrahydro-1H-pyrazolo[4,3-c]pyridine-3-carboxamide] are 173 nM and > 7650 nM.
In the same order, the values of `Cc1nn(C)c(=O)n1-c1ccc(N2Cc3c(C(=O)NCc4ccc(NC(=O)N(C)C)cc4)nn(C(C)C)c3[C@@H](C)C2)nc1` [Example 466, (S)-5-(5-(1,3-dimethyl-5-oxo-1,5-dihydro-4H-1,2,4-triazol-4-yl)pyridin-2-yl)-N-(4-(3,3-dimethylureido)benzyl)-1-isopropyl-7-methyl-4,5,6,7-tetrahydro-1H-pyrazolo[4,3-c]pyridine-3-carboxamide] are 2 nM and 18 nM.
For `CC(C)n1nc(C(=O)NCc2ccc(NC(=O)N3CCN(C)CC3)cc2)c2c1[C@@H](C)CN(c1ccc(C(=O)N(C)C)cn1)C2` [Example 470, (S)-5-(5-(dimethylcarbamoyl)pyridin-2-yl)-1-isopropyl-7-methyl-N-(4-(4-methylpiperazine-1-carboxamido)benzyl)-4,5,6,7-tetrahydro-1H-pyrazolo[4,3-c]pyridine-3-carboxamide], in assay [1], the concentration for a half-maximal effect (EC50) is 1 nM. For the same compound, the 50% inhibitory concentration (IC50) in assay [2] stood at 5 nM.
Turning to `Cc1nn(C)c(=O)n1-c1ccc(CNC(=O)c2nn(C(C)C)c3c2CN(c2ccc(C(=O)N(C)C)cn2)C[C@@H]3C)cc1` [Example 471, (S)-N-(4-(1,3-dimethyl-5-oxo-1,5-dihydro-4H-1,2,4-triazol-4-yl)benzyl)-5-(5-(dimethylcarbamoyl)pyridin-2-yl)-1-isopropyl-7-methyl-4,5,6,7-tetrahydro-1H-pyrazolo[4,3-c]pyridine-3-carboxamide], in assay [1], the concentration for a half-maximal effect (EC50) came out at 432 nM. The same compound displayed a 50% inhibitory concentration (IC50) in assay [2] of 3290 nM.
Consider `CC(C)n1nc(C(=O)NCc2ccc(NC(=O)N(C)C)cc2)c2c1C(O)CN(c1ccc(C(=O)N(C)C)cn1)C2` (centres unmarked) [Example 473, 5-(5-(dimethylcarbamoyl)pyridin-2-yl)-N-(4-(3,3-dimethylureido)benzyl)-7-hydroxy-1-isopropyl-4,5,6,7-tetrahydro-1H-pyrazolo[4,3-c]pyridine-3-carboxamide], for which, in assay [1], the EC50 amounted to 0.3 nM. Also, in assay [2], the half-maximal inhibitory concentration (IC50) was found to be 5 nM.
Take `CCn1nc(C(=O)NCc2ccc(NC(=O)NC)cc2)c2c1[C@@H](C)CN(c1ccc(N3CCCC3=O)cn1)C2` [Example 476, (S)-1-ethyl-7-methyl-N-(4-(3-methylureido)benzyl)-5-(5-(2-oxopyrrolidin-1-yl)pyridin-2-yl)-4,5,6,7-tetrahydro-1H-pyrazolo[4,3-c]pyridine-3-carboxamide]: in assay [1], the concentration giving a half-maximal response (EC50) turned out to be 1 nM. The IC50 in assay [2] stood at 9 nM.

The values above are taken from patent US20250320213A1, “Nitrogen-Containing Heterocyclic Compounds” (Pfizer Inc., priority 2024, published 2025).
